Test results from US20230167414A1, “METHODS FOR ISOLATING AND CULTURING TUMOR CELLS” (Georgetown University, priority 2020, published 2023).

Assays:
[1] = tested on: airway epithelial cells; conditions: cited from earlier work
[2] = tested on: the cells; assay: Culture conditions described herein with upstream/downstream ROCK pathway inhibitor in place of a ROCK inhibitor; assay type: cell-based; conditions: used in the culture conditions in place of a ROCK inhibitor
Source text: As used herein, inhibiting ROCK can mean to reduce the activity, function, or expression of at least one of ROCK1 or ROCK2. […] In general, ROCK phosphorylates LEVI kinase and myosin light chain (MLC) phosphatase after being activated through binding of GTP-bound Rho. One embodiment of the present invention thus involves blocking the upstream pathway of ROCK1 and/or ROCK2, for example GTP-bound Rho, such that ROCK1 and/or ROCK2 is not activated or its activity is reduced over untreated cells. Other upstream effectors include, but are not limited to, integrins, growth factor receptors, including but not limited to, TGF-beta and EGFR, cadherins, G protein coupled receptors and the like. Another embodiment of the present invention thus involves blocking the activity, function, or expression of downstream effector molecules of activated ROCK1 and/or ROCK2 such that ROCK1 and/or ROCK2 cannot propagate any signal or can only propagate a reduced signal over untreated cells. Downstream effectors include, but are not limited to, myosin phosphatase-targeting protein (MYPT), vimentin, LIMK, myosin light chain kinase, NHE1, cofilin, Myosin II and the like.

## O=S(=O)(c1cccc2cnccc12)N1CCCNCC1 [HA 1077, fasudil]
[1]
  effect of inhibition on airway epithelial cells: induces membrane ruffling, loss of actin stress fibers and apoptosis

## C[C@@H](N)[C@H]1CC[C@H](C(=O)Nc2ccncc2)CC1 [Y-27632]
[1]
  effect of inhibition on airway epithelial cells: induces membrane ruffling, loss of actin stress fibers and apoptosis

## Cc1ccc2c(c1)C(=O)C1(O)CCN(c3ccccc3)C1=N2 (stereo not shown) [blebbistatin]
[2]
  effect on cells (differentiation / proliferation in vitro): allow the cells to bypass differentiation and allow proliferation in vitro

## C3 transferase
[2]
  effect on cells (differentiation / proliferation in vitro): allow the cells to bypass differentiation and allow proliferation in vitro
